Measurements from US20220241203A1, “METHOD FOR PRODUCTION OF LIPOSOMES” (UNIVERSIDADE DO MINHO, priority 2019, published 2022).

Assay: Encapsulation efficiency of the agent in liposomes (free agent removed by gel filtration)
Assay type: physicochemical
Method: In an embodiment, liposomes composed of DOPE/Cholesterol/DSPE-MPEG (54:36:10, molar ratio) were prepared using the ethanolic injection method. Briefly, lipids (DOPE, cholesterol and DSPE-MPEG) were dissolved in ethanol (5% in the classic ethanol injection method; 50% in the new proposed pre-concentration method, relative to the initial 20% aqueous phase) at 60° C.
The solution was injected under stirring to an aqueous solution (phosphate buffered saline, PBS). This process is done at 70° C., remaining during the necessary time to evaporate all the ethanol volume.
In the classic ethanolic injection method liposomes are extruded to reduce their size. In the pre-concentration method, after ethanol evaporation or tangential flow filtration, liposomal dispersion is diluted five times in PBS (remaining 80% of volume is added). The free therapeutic or imaging agent that was not incorporated into liposomes was removed from the samples after passage through a gel filtration chromatography column (GE Healthcare) with 5 kDa cut-off (PD-10 Desalting Columns containing 8.3 mL of Sephadex G-25 Medium). Hydrophilic therapeutic or imaging agents (e.g. methotrexate and doxorubicin) are present in this aqueous phase in the classic ethanol injection method and in the new proposed pre-concentration method. […]

amount of the agent used that was encapsulated (before optimization of the production method): 3-5%
encapsulation efficiencies (pre-concentration method, 1:1 ethanol:aqueous phase, 2 steps): ~40%
SMILES: CN(Cc1cnc2nc(N)nc(N)c2n1)c1ccc(C(=O)N[C@@H](CCC(=O)O)C(=O)O)cc1 [methotrexate]
